In patent publication US10858335B2 (Rigel Pharmaceuticals, Inc., priority 2014, dated 2020):

What follows are molecules tested on GDF8 signaling (p-SMAD-3 (Ser423/425)) (assay: AlphaScreen SureFire SMAD3 (p-Ser423/425) assay, GDF8-stimulated cells (GDF pSMAD)). Conditions: Mus musculus, MPC-11, GDF8-stimulated pSMAD3, MPC11; tested as the salt form given; read-out: GDF pSMAD (MPC11) (μM), inhibition of GDF8 signaling.
Assay type: cell-based

IC50 [µM] | SMILES
6.95 | COc1ccc(C)c(-c2ncccc2-c2ccc3ncnc(N)c3c2)c1 [compound 1015, 6-(2-(5-methoxy-2-methylphenyl)pyridin-3-yl)quinazolin-4-amine]

Same assay, conditions: Mus musculus, MPC-11, MPC11; GDF8-stimulated; p-SMAD3 AlphaScreen; read-out: GDF pSMAD (MPC11) (inhibition of GDF8 signaling)

SMILES | IC50 [µM]
Cc1cc(-c2ncccc2-c2ccc3ncc(C(=O)N[C@H]4CCCC[C@@H]4N)n3c2)ccc1F [compound 680, N-((1S,2S)-2-Aminocyclohexyl)-6-(2-(4-fluoro-3-methylphenyl)pyridin-3-yl)imidazo[1,2-a]pyridine-3-carboxamide] | 2.13
Cc1cccc(-c2ncccc2-c2ccc3c(cnn3C)c2)c1 [Compound 146, 1-Methyl-5-(2-m-tolylpyridin-3-yl)-1H-indazole] | 0.621
Cn1cnc2ccc(-c3cccnc3-c3ccc(F)c(Cl)c3F)cc21 [compound 967, 6-(2-(3-Chloro-2,4-difluorophenyl)pyridin-3-yl)-1-methyl-1H-benzo[d]imidazole] | 1.44
Cc1cc(-c2ncc(NCc3ccc(C#N)cc3)cc2-c2ccc3nccnc3c2)ccc1F [compound 308, 4-(((6-(4-Fluoro-3-methylphenyl)-5-(quinoxalin-6-yl)pyridin-3-yl)amino)methyl)benzonitrile] | 4.81
Cc1cc(-c2ncccc2-c2ccn3c(C(=O)NCCN4CCN(C)CC4)ncc3c2)ccc1F [compound 265, 7-(2-(4-Fluoro-3-methylphenyl)pyridin-3-yl)-N-(2-(4-methylpiperazin-1-yl)ethyl)imidazo[1,5-a]pyridine-3-carboxamide] | 8.12
Cc1cc(-c2ncccc2-c2ccc3c(=O)nc[nH]c3c2)ccc1F [compound 348, 7-(2-(4-Fluoro-3-methylphenyl)pyridin-3-yl)quinazolin-4(1H)-one] | 1.3
Cc1cc(-c2ncccc2-c2ccc3ncn(C)c(=O)c3c2)ccc1F [compound 340, 6-(2-(4-Fluoro-3-methylphenyl)pyridin-3-yl)-3-methylquinazolin-4(3H)-one] | 0.464
Cc1cc(-c2ncccc2-c2ccc3ncn(CCN4CCOCC4)c3c2)ccc1F [Compound 35, 6-(2-(4-Fluoro-3-methylphenyl)pyridin-3-yl)-1-(2-morpholinoethyl)-1H-benzo[d]imidazole] | 10.8

Results, then the molecule that gave them:

IC50 [µM] | SMILES
0.333 | Cc1cc(-c2ncccc2-c2ccc3ncc(C(=O)NCCCN4CCN(C)CC4)n3c2)ccc1F [compound 591, 6-(2-(4-Fluoro-3-methylphenyl)pyridin-3-yl)-N-(3-(4-methylpiperazin-1-yl)propyl)imidazo[1,2-a]pyridine-3-carboxamide]
0.292 | COc1ccc(F)c(-c2ncccc2-c2ccc3ncnc(N)c3c2)c1 [compound 473, 6-(2-(2-Fluoro-5-methoxyphenyl)pyridin-3-yl)quinazolin-4-amine]
0.231 | Clc1cccc(-c2ncccc2-c2ccc3nc[nH]c3c2)c1 [compound 783]
0.211 | Cc1cc(-c2ncccc2-c2ccn3ncc(C(=O)NCCN4CCOCC4)c3c2)ccc1F [compound 674, 5-(2-(4-Fluoro-3-methylphenyl)pyridin-3-yl)-N-(2-morpholinoethyl)pyrazolo[1,5-a]pyridine-3-carboxamide]
0.165 | c1cc(-c2ncccc2-c2ccc3ncncc3c2)cc(C2CC2)c1 [compound 365, 6-(2-(3-Cyclopropylphenyl)pyridin-3-yl)quinazoline]
0.136 | Nc1ncnc2ccc(-c3cccnc3-c3cc(Cl)c(F)cc3F)cc12 [compound 450, 6-(2-(5-Chloro-2,4-difluorophenyl)pyridin-3-yl)quinazolin-4-amine]
0.119 | Nc1ncnc2ccc(-c3cccnc3-c3ccc(F)c(Cl)c3)cc12 [compound 394, 6-(2-(3-Chloro-4-fluorophenyl)pyridin-3-yl)quinazolin-4-amine]
0.118 | Cc1cc(-c2ncccc2-c2cc(C)c3[nH]ncc3c2)ccc1F [Compound 175, 5-(2-(4-Fluoro-3-methylphenyl)pyridin-3-yl)-7-methyl-1H-indazole]
0.105 | O=c1nc[nH]c2ccc(-c3cccnc3-c3cccc(C4CC4)c3)cc12 [compound 362, 6-(2-(3-Cyclopropylphenyl)pyridin-3-yl)quinazolin-4(1H)-one]
